From patent publication US11077090B2, “Compounds and compositions and uses thereof” (Sunovion Pharmaceuticals Inc., priority 2016, dated 2021)

Legend:
Format in all cases: in vivo
[1] = test system: Male C57Bl/6J mice; test: Marble burying test; set-up: key: −: No reduction in number of marbles buried; +: Significant reduction in number of marbles buried (P < 0.05 vs vehicle)
Experimental: The marble burying assay is used to evaluate the anxiolytic activity of a test compound. After placement in a novel cage containing glass marbles, mice will bury the marbles. Acute administration of anxiolytic agents, as well as antidepressants, decrease this activity at non-sedating doses. Male C57Bl/6J mice from Jackson Laboratories were used in this study and were acclimatized to the experimental room for at least 1 hour prior to testing. Mice (n=10 per group) were administered sterile water or test compound intraperitoneally (i.p.) or orally by gavage (p.o.), or the positive control chlordiazepoxide (15 mg/kg, i.p.), in 10 mL/kg injection volumes, and returned to their home cages for a 30-minute pretreatment period. The mice were then placed individually in clean cages, containing hard wood bedding and twenty black marbles placed in spaced rows of 4×5. After a 30-minute test session, the number of buried marbles was counted. A marble was considered buried if it was pushed at least two thirds into the bedding. Locomotor activity was monitored by measuring the distance traveled using an overhead camera and Video Tracker Software (ViewPoint Life Sciences Software, France). A reduction in the number of marbles buried relative to the vehicle condition indicates an anxiolytic drug-like effect.

[2] = test system: Male C57Bl/6J mice; test: Amphetamine induced hyperlocomotion assay; set-up: key: #: Significant increase in total distance traveled (P < 0.05 vs vehicle + AMPH group); −: No change in total distance traveled; Significant decrease in total distance traveled (P < 0.05 vs vehicle + AMPH group); conditions: 3 mg/kg PO Compound + AMPH
Experimental: Psychostimulants such as amphetamine (AMPH) are frequently used to induce or mimic a manic-like or psychotic-like state. AMPH administration to rodents increases horizontal locomotion, vertical rearing and repetitive stereotyped behaviors, and typical antipsychotic drugs, such as haloperidol, can reduce these behaviors. The antimanic/antipsychotic-like effects of test compounds were evaluated in male C57Bl/6J mice from Jackson Laboratories Mice were acclimatized to the experimental room for at least 1 hour prior to testing. The mice (n=10 per group) were administered vehicle or test compound orally by gavage (10 mL/kg injection volume) and placed individually in the novel open field (OF) chambers (Med Associates) for 30 minutes of baseline activity measurement. Mice were then injected with either water or AMPH (4 mg/kg, i.p., 10 mL/kg) and placed back in the same individual OF chambers for a 60-minute testing session during which the effects of test compounds on stimulant-induced behaviors (total distance traveled, rearing and stereotypy) were measured. A reduction in total distance traveled relative to the vehicle+AMPH condition indicates an antimanic/antipsychotic drug-like response.

[3] = test system: Adult male AJ mice; test: Tail suspension test (TST); set-up: key: −: No decrease in Mean Total Time Immobile; +: Significant decrease in Mean Total Time Immobile (P < 0.05 vs vehicle); conditions: 3 mg/kg PO
Source text: The tail suspension test (TST) is a rodent screening test for potential (human) antidepressant drugs. It is based on the assumption that an animal will actively try to escape an aversive (stressful) stimulus. If escape is impossible, the animal will eventually stop trying (“give up”). In the TST, a mouse is suspended by the tail so that its body dangles in the air, head downward. Mice initially struggle to face upward and climb to a solid surface. When the animal stops struggling and hangs immobile it is considered to have “given up”. Shorter periods of immobility are characteristic of antidepressant-like activity. Accordingly, longer periods of immobility are considered indicative of a depressive-like state. It has been shown that treatment with an antidepressant drug will decrease the time the animal spends immobile. See generally L. Steru et al., Psychopharmacology (Berl). 1985; 85(3):367-70; B. Thierry et al., Psychopharmacology 1986; 90:284-85.
Adult male AJ mice from Jackson Laboratories received vehicle (sterile water) or test compound orally by gavage, or the positive control desipramine (20 mg/kg, i.p.), in 10 mL/kg injection volumes, 30 min before being subjected to the Tail Suspension Test. In this test, mice are placed in the Tail Suspension chambers (white polyvinylchloride cubicles measuring 33×33×31.75 cm Med Associates, Inc. St. Albans, Vt.) by a piece of transparent (Scotch®) tape attached to the tail, from about the mid-tail, with approximately 2 cm of tape past the end of the tail for 10 min during which the time spent immobile is measured. A reduction in total time immobile relative to the vehicle condition indicates an antidepressant drug-like response.

[4] = test system: Male C57Bl/6J mice; test: Prepulse inhibition of startle (PPI); set-up: key: −: No change in PPI; +: Significant increase in PPI at one pre-pulse intensity (P < 0.05 vs vehicle); ++: Significant increase in PPI at two pre-pulse intensities (P < 0.05 vs vehicle); +++: Significant increase in PPI at three pre-pulse intensities (P < 0.05 vs vehicle); conditions: 3 mg/kg PO
Source text: The acoustic startle is an unconditioned reflex response to an external auditory stimulus. Prepulse inhibition of startle (PPI) refers to the reduction in the startle response caused by the presentation of a low-intensity auditory stimulus prior to the startle stimulus. The PPI paradigm is used for the study of schizophrenia and antipsychotic action due to the similarities between the results from human and rodent studies. PPI has been used as a tool for the assessment of deficiencies in sensory-motor gating observed in schizophrenia and to screen for potential antipsychotic drugs. Various psychotomimetic drugs, such as phencyclidine (PCP), can disrupt PPI. In mice, antipsychotic drugs such as haloperidol can increase PPI and clozapine can reverse the disruption of PPI induced by PCP.
Male C57Bl/6J mice from Jackson Laboratories were placed in the PPI chambers (Med Associates) for a 5 min session of white noise (70 dB) habituation. After the habituation period, the test session was initiated. The session started with a habituation block of 6 presentations of the startle stimulus alone, followed by 10 PPI blocks, each of which consisted of 6 different types of trials. Trial types were: ‘null’ (no stimuli), ‘startle’ (120 dB), ‘startle plus prepulse’ (4, 8, and 12 dB over background noise, i.e., 74, 78, or 82 dB) and ‘prepulse’ (82 dB). Trial types were presented in a random order within each block. Each trial started with a 50 ms stimulus-free period during which baseline movements were recorded. This was followed by a subsequent 20 ms period during which the prepulse stimulus was presented and responses to the prepulse measured. After a further 100 ms period, the startle stimulus was presented for 40 ms and responses recorded for 100 ms from startle onset. Responses were sampled every ms. The inter-trial interval was variable with an average of 15 s (range from 10 to 20 s). In ‘startle’ trials, the basic auditory startle response was measured. The basic startle response was calculated as the mean startle response of all ‘startle’ trials (i.e., excluding the first habituation block). In ‘startle plus prepulse’ trials, the degree of inhibition of the normal startle was calculated and expressed as a percentage of the basic startle response.
Mice were treated with vehicle or test compound orally by gavage, or haloperidol (1 mg/kg, i.p.), in 10 mL/kg injection volumes, 30 min prior to PPI test. The PPI enclosures were cleaned following each test. An increase in the percent PPI relative to the vehicle condition indicates an antipsychotic drug-like response.

[5] = test system: compound-treated mice; test: Neuropharmacological assay (SmartCube): behavioral activity signature and minimal effective dose; conditions: for Potency: minimal effective dose (MED), binned / minimal effective dose: MED = dose having 50% or more total activity; for AD: ADHD (probability of activity signature) / AG: analgesic (probability of activity signature) / AX: anxiolytic (probability of activity signature) / CE: cognitive enhancer (probability of activity signature) / DP: anti-depressant (probability of activity signature) / MS: mood stabilizer (probability of activity signature) / PS: anti-psychotic (probability of activity signature) / SD: sedative hypnotic (probability of activity signature) / UN: uncharacterized CNS activity (probability of activity signature): i.p. 15 min before test, most efficacious dose(s); for minimal effective dose: Mus musculus, ip, read-out: Potency: minimal effective dose (MED), binned
How it was run: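 Video-recorded behavior is compared algorithmically against a reference-compound database, yielding class probabilities (best dose reported). Compounds given i.p. in NMP/PEG/propylene glycol 15 min pre-test at 3 doses; potency as MED, the dose (mpk, range usually 0.3–30) reaching ≥50% total activity.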

Compound	Marbles Buried ([1]; 1 mg/kg (p.o.))	Total Distance Traveled [2]	Mean Total Time Immobile [3]	Effect on Pre-Pulse Inhibition (PPI) [4]	Marbles Buried ([1]; 1 mg/kg (i.p.))	Potency: minimal effective dose (MED), binned [5]	AD: ADHD (probability of activity signature) [5]	AG: analgesic (probability of activity signature) [5]	AX: anxiolytic (probability of activity signature) [5]	CE: cognitive enhancer (probability of activity signature) [5]	DP: anti-depressant (probability of activity signature) [5]	MS: mood stabilizer (probability of activity signature) [5]	PS: anti-psychotic (probability of activity signature) [5]	SD: sedative hypnotic (probability of activity signature) [5]	UN: uncharacterized CNS activity (probability of activity signature) [5]	Marbles Buried ([1]; 3 mg/kg (i.p.))	Marbles Buried ([1]; 10 mg/kg (i.p.))	minimal effective dose [5] [mg/kg]
N[C@H]1COCc2ccc(F)cc21 (single isomer, unassigned) [Compound 114]	−	−	−	−														
C[C@@H]1OCc2cccc(Cl)c2[C@H]1N (single isomer, unassigned) [Compound 160]					−													
CC[C@@H]1OCc2ccccc2[C@H]1N (single isomer, unassigned) [Compound 195]					−													
C[C@@H]1OCc2cccc(Cl)c2[C@H]1N (single isomer, unassigned) [Example 160]						A (≤3 mpk)	+ (LOQ ≤ + <5%)	++ (5% ≤ ++ <25%)	++ (5% ≤ ++ <25%)	++ (5% ≤ ++ <25%)	+ (LOQ ≤ + <5%)	+ (LOQ ≤ + <5%)	++ (5% ≤ ++ <25%)	+ (LOQ ≤ + <5%)	+++ (25% ≤ +++ <50%)	−	+	
CC[C@@H]1OCc2ccccc2[C@H]1N (single isomer, unassigned) [Example 195]						A (≤3 mpk)	+ (LOQ ≤ + <5%)	++ (5% ≤ ++ <25%)	++ (5% ≤ ++ <25%)	++ (5% ≤ ++ <25%)	++ (5% ≤ ++ <25%)	+ (LOQ ≤ + <5%)	++ (5% ≤ ++ <25%)	++ (5% ≤ ++ <25%)	++++ (50% ≤ ++++)	−	+	
CCN(C)C(=O)Oc1ccc2c(c1)[C@H](N(C)C)[C@H](C)OC2.Cl [Example 287]							+ (LOQ ≤ + <5%)	+ (LOQ ≤ + <5%)	+ (LOQ ≤ + <5%)	+ (LOQ ≤ + <5%)	+ (LOQ ≤ + <5%)	+ (LOQ ≤ + <5%)	+ (LOQ ≤ + <5%)	++ (5% ≤ ++ <25%)	+ (LOQ ≤ + <5%)			> 30
CCN(C)C(=O)Oc1ccc2c(c1)[C@H](N(C)C)[C@@H](C)OC2.Cl [Example 288]							+ (LOQ ≤ + <5%)	+ (LOQ ≤ + <5%)	+ (LOQ ≤ + <5%)	+ (LOQ ≤ + <5%)	++ (5% ≤ ++ <25%)	+ (LOQ ≤ + <5%)	+ (LOQ ≤ + <5%)	++ (5% ≤ ++ <25%)	+ (LOQ ≤ + <5%)			> 30
cis-3-Isopropylisochroman-4-amine hydrochloride [Example 273]						A (≤3 mpk)	+ (LOQ ≤ + <5%)	++ (5% ≤ ++ <25%)	+ (LOQ ≤ + <5%)	+ (LOQ ≤ + <5%)	++ (5% ≤ ++ <25%)	++ (5% ≤ ++ <25%)	+ (LOQ ≤ + <5%)	+++ (25% ≤ +++ <50%)	++ (5% ≤ ++ <25%)			
